Patent US20260138949A1, “NOVEL COMPOUND AS PHOSPHOLIPASE D INHIBITOR AND USE THEREOF” (UIF (UNIVERSITY INDUSTRY FOUNDATION), YONSEI UNIVERSITY, priority 2022, published 2026)

System: phospholipase D1
Test: PLD activity in HCT116 cells ([3H]phosphatidylbutanol, TLC)
Type: cell-based, human
Details: compound 10 μM, cells without the compound = 100%
Experimental: To evaluate the inhibitory effect of the compounds according to the present invention on phospholipase D1 activity, experiments were conducted as follows.
For the analysis of PLD activity in cells, human colon cancer cell line (HCT116) was cultured in a 6-well plate at 37° C. for 24 hours, washed twice with phosphate-buffered saline (PBS), and then replaced with medium containing [^3H]myristate and cultured for 24 hours. After the culture, the cells were washed three times with PBS, treated with 1-butanol, and the drug was added to a final concentration of 10 μM. The cells were trypsinized and suspended, and the amount of [^3H]phosphatidylbutanol produced in the cell suspension was measured and evaluated for PLD activity using thin layer chromatography (TLC), and the results are shown in Table 1 below.
The Remaining activity % at 10 μM in Table 1 is calculated by setting the amount of [^3H]phosphatidylbutanol produced in cells without the compound as 100% and calculating the amount of [^3H]phosphatidylbutanol produced in cells treated with the compound as a percentage. Therefore, the lower the value of Remaining activity %, the higher the PLD inhibitory activity.

**Q.** Which “Remaining activity % at 10 μM” value does the source give for `O=C(Nc1ccc(Cl)c([N+](=O)[O-])c1)c1c[nH]c2ccccc12` [Example 1-1, N-(4-chloro-3-nitrophenyl)-1H-indole-3-carboxamide] here?
**A.** The value was 86.43%.

**Q.** For `O=C(Nc1ccc(Br)cc1)c1c[nH]c2ccccc12` [Example 1-2, N-(4-bromophenyl)-1H-indole-3-carboxamide], which “Remaining activity % at 10 μM” value is on record?
**A.** The value was 85.52%.

**Q.** With `COc1ccc(NC(=O)c2c[nH]c3ccccc23)cc1OC` [Example 1-3, N-(3,4-dimethoxyphenyl)-1H-indole-3-carboxamide] as the molecule, how does the “Remaining activity % at 10 μM” value read?
**A.** Its value is 62.73%.

**Q.** With `O=C(Nc1ccc(Cl)c(Cl)c1)c1c[nH]c2ccccc12` [Example 1-4, N-(3,4-dichlorophenyl)-1H-indole-3-carboxamide] as the molecule, how does the “Remaining activity % at 10 μM” value read?
**A.** Its value is 56.19%.

**Q.** For `O=C(NCc1ccc(Cl)c(Cl)c1)c1c[nH]c2ccccc12` [Example 1-5, N-(3,4-dichlorobenzyl)-1H-indole-3-carboxamide], which “Remaining activity % at 10 μM” value is on record?
**A.** Its value is 89.34%.

**Q.** With `O=C(Cc1c[nH]c2ccccc12)Nc1ccccc1O` [Example 1-7, N-(2-hydroxyphenyl)-2-(1H-indol-3-yl)acetamide] as the molecule, how does the “Remaining activity % at 10 μM” value read?
**A.** The value was 65.03%.

**Q.** `O=C(Cc1c[nH]c2ccccc12)Nc1cccc(O)c1` [Example 1-8, N-(3-hydroxyphenyl)-2-(1H-indol-3-yl)acetamide] was tested. Which “Remaining activity % at 10 μM” value did it give?
**A.** The value was 65.7%.

**Q.** How did the “Remaining activity % at 10 μM” value turn out when `COc1ccccc1NC(=O)Cc1c[nH]c2ccccc12` [Example 1-9, 2-(1H-indol-3-yl)-N-(2-methoxyphenyl)acetamide] was run?
**A.** Its value is 80.82%.

**Q.** How did the “Remaining activity % at 10 μM” value turn out when `COc1cccc(NC(=O)Cc2c[nH]c3ccccc23)c1` [Example 1-10, 2-(1H-indol-3-yl)-N-(3-methoxyphenyl)acetamide] was run?
**A.** The value was 89.33%.

**Q.** Which “Remaining activity % at 10 μM” value does the source give for `COc1ccc(NC(=O)Cc2c[nH]c3ccccc23)cc1` [Example 1-11, 2-(1H-indol-3-yl)-N-(4-methoxyphenyl)acetamide] here?
**A.** Its value is “not active”.

**Q.** For `O=C(Cc1c[nH]c2ccccc12)Nc1ccccc1F` [Example 1-12, N-(2-fluorophenyl)-2-(1H-indol-3-yl)acetamide], which “Remaining activity % at 10 μM” value is on record?
**A.** The value was “not active”.

**Q.** How did the “Remaining activity % at 10 μM” value turn out when `O=C(Cc1c[nH]c2ccccc12)Nc1cccc(F)c1` [Example 1-13, N-(3-fluorophenyl)-2-(1H-indol-3-yl)acetamide] was run?
**A.** Its value is 30.28%.

**Q.** For `O=C(Cc1c[nH]c2ccccc12)Nc1ccc(F)cc1` [Example 1-14, N-(4-fluorophenyl)-2-(1H-indol-3-yl)acetamide], which “Remaining activity % at 10 μM” value is on record?
**A.** The value was “not active”.

**Q.** With `O=C(Cc1c[nH]c2ccccc12)Nc1ccccc1Br` [Example 1-15, N-(2-bromophenyl)-2-(1H-indol-3-yl)acetamide] as the molecule, how does the “Remaining activity % at 10 μM” value read?
**A.** Its value is 30.42%.

**Q.** How did the “Remaining activity % at 10 μM” value turn out when `O=C(Cc1c[nH]c2ccccc12)Nc1cccc(Br)c1` [Example 1-16, N-(3-bromophenyl)-2-(1H-indol-3-yl)acetamide] was run?
**A.** The value was 97.25%.

**Q.** Which “Remaining activity % at 10 μM” value does the source give for `O=C(Cc1c[nH]c2ccccc12)Nc1ccc(Br)cc1` [Example 1-17, N-(4-bromophenyl)-2-(1H-indol-3-yl)acetamide] here?
**A.** Its value is “not active”.

**Q.** Which “Remaining activity % at 10 μM” value does the source give for `O=C(Cc1c[nH]c2ccccc12)Nc1cc(F)cc(F)c1` [Example 1-18, N-(3,5-difluorophenyl)-2-(1H-indol-3-yl)acetamide] here?
**A.** The value was 97.19%.

**Q.** How did the “Remaining activity % at 10 μM” value turn out when `O=C(Cc1c[nH]c2ccccc12)Nc1ccc(Cl)c([N+](=O)[O-])c1` [Example 1-19, N-(4-chloro-3-nitrophenyl)-2-(1H-indol-3-yl)acetamide] was run?
**A.** The value was “not active”.

**Q.** For `O=C(Cc1c[nH]c2ccccc12)Nc1ccc(Cl)c(Cl)c1` [Example 1-20, N-(3,4-dichlorophenyl)-2-(1H-indol-3-yl)acetamide], which “Remaining activity % at 10 μM” value is on record?
**A.** The value was “not active”.

**Q.** Which “Remaining activity % at 10 μM” value does the source give for `O=C(Cc1c[nH]c2ccccc12)Nc1ccc(Br)cn1` [Example 1-21, N-(5-bromopyridin-2-yl)-2-(1H-indol-3-yl)acetamide] here?
**A.** Its value is 46.59%.

**Q.** With `O=C(Cc1c[nH]c2ccccc12)Nc1ccc(F)cn1` [Example 1-22, N-(5-fluoropyridin-2-yl)-2-(1H-indol-3-yl)acetamide] as the molecule, how does the “Remaining activity % at 10 μM” value read?
**A.** The value was 66.5%.

**Q.** `O=C(Cc1c[nH]c2ccccc12)Nc1ccccc1` [Example 1-23, 2-(1H-indol-3-yl)-N-phenylacetamide] was tested. Which “Remaining activity % at 10 μM” value did it give?
**A.** Its value is “not active”.

**Q.** For `O=C(Cc1c[nH]c2ccccc12)Nc1ccc(O)cc1` [Example 1-24, N-(4-hydroxyphenyl)-2-(1H-indol-3-yl)acetamide], which “Remaining activity % at 10 μM” value is on record?
**A.** The value was “not active”.

**Q.** Which “Remaining activity % at 10 μM” value does the source give for `COC(=O)c1ccc(NC(=O)Cc2c[nH]c3ccccc23)cc1` [Example 1-25, methyl 4-(2-(1H-indol-3-yl)acetamido)benzoate] here?
**A.** Its value is 66.73%.

**Q.** `O=C(Cc1c[nH]c2ccccc12)Nc1ccc(C(F)(F)F)cc1` [Example 1-26, 2-(1H-indol-3-yl)-N-(4-(trifluoromethyl)phenyl)acetamide] was tested. Which “Remaining activity % at 10 μM” value did it give?
**A.** The value was 82.43%.

**Q.** Which “Remaining activity % at 10 μM” value does the source give for `CC(C)(C)c1ccc(NC(=O)Cc2c[nH]c3ccccc23)cc1` [Example 1-27, N-(4-tert-butylphenyl)-2-(1H-indol-3-yl)acetamide] here?
**A.** The value was 81.22%.

**Q.** For `COc1ccc(NC(=O)Cc2c[nH]c3ccccc23)cc1OC` [Example 1-28, N-(3,4-dimethoxyphenyl)-2-(1H-indol-3-yl)acetamide], which “Remaining activity % at 10 μM” value is on record?
**A.** Its value is “not active”.

**Q.** With `CCOC(=O)c1ccc(NC(=O)Cc2c[nH]c3ccccc23)cc1` [Example 1-29, ethyl 4-(2-(1H-indol-3-yl)acetamido)benzoate] as the molecule, how does the “Remaining activity % at 10 μM” value read?
**A.** The value was 76.8%.

**Q.** `O=C(Cc1c[nH]c2ccccc12)Nc1cccc([N+](=O)[O-])c1` [Example 1-30, 2-(1H-indol-3-yl)-N-(3-nitrophenyl)acetamide] was tested. Which “Remaining activity % at 10 μM” value did it give?
**A.** Its value is “not active”.

**Q.** For `C#Cc1ccc(NC(=O)Cc2c[nH]c3ccccc23)cc1` [Example 1-31, N-(4-ethynylphenyl)-2-(1H-indol-3-yl)acetamide], which “Remaining activity % at 10 μM” value is on record?
**A.** Its value is “not active”.

**Q.** How did the “Remaining activity % at 10 μM” value turn out when `O=C(Cc1c[nH]c2ccccc12)Nc1cc(C(F)(F)F)cc(C(F)(F)F)c1` [Example 1-32, N-(3,5-bis(trifluoromethyl)phenyl)-2-(1H-indol-3-yl)acetamide] was run?
**A.** The value was 40.95%.

**Q.** `CC(C)c1ccc(NC(=O)Cc2c[nH]c3ccccc23)cc1` [Example 1-33, 2-(1H-indol-3-yl)-N-(4-isopropylphenyl)acetamide] was tested. Which “Remaining activity % at 10 μM” value did it give?
**A.** The value was 83.43%.

**Q.** With `CCC(C)c1ccc(NC(=O)Cc2c[nH]c3ccccc23)cc1` (centres unmarked) [Example 1-34, N-(4-sec-butylphenyl)-2-(1H-indol-3-yl)acetamide] as the molecule, how does the “Remaining activity % at 10 μM” value read?
**A.** The value was 66.07%.

**Q.** `O=C(Cc1c[nH]c2ccccc12)NCc1ccccc1F` [Example 1-35, N-(2-fluorobenzyl)-2-(1H-indol-3-yl)acetamide] was tested. Which “Remaining activity % at 10 μM” value did it give?
**A.** The value was 83.61%.

**Q.** Which “Remaining activity % at 10 μM” value does the source give for `O=C(Cc1c[nH]c2ccccc12)NCc1cccc(F)c1` [Example 1-36, N-(3-fluorobenzyl)-2-(1H-indol-3-yl)acetamide] here?
**A.** Its value is 76.23%.

**Q.** Which “Remaining activity % at 10 μM” value does the source give for `O=C(Cc1c[nH]c2ccccc12)NCc1ccc(F)cc1` [Example 1-37, N-(4-fluorobenzyl)-2-(1H-indol-3-yl)acetamide] here?
**A.** The value was “not active”.

**Q.** `COC(=O)c1ccc(CNC(=O)Cc2c[nH]c3ccccc23)cc1` [Example 1-38, methyl 4-((2-(1H-indol-3-yl)acetamido)methyl)benzoate] was tested. Which “Remaining activity % at 10 μM” value did it give?
**A.** The value was 99.81%.

Same assay, conditions: compound 10 μM, cells without the compound = 100%, 10 µM

**Q.** With `O=C(NNc1ccc(Cl)c(Cl)c1)c1cc2ccccc2[nH]1` [Example 1-6, N′-(3,4-dichlorophenyl)-1H-indole-2-carbohydrazide] as the molecule, how does the “Remaining activity % at 10 μM” value read?
**A.** The value was 86.59%.
